Reference: patent US11564913B2, “Compositions and methods for treating cancer” (Children's Hospital Medical Center, priority 2019, dated 2023)

Key:
[1] = system: active GTP-bound Ras in ST8814 cells; assay: Active Ras pull-down with GST-RafRBD; type: cell-based; conditions: 2 μM
Protocol: FIG. 4. IODVA1 inhibits proliferation of cancer model cells. (A) IODVA1 is a potent cell proliferation inhibitor. MCF10A, MCF7, MDA-MB-231, and T47D cells were grown in the presence of the indicated IODVA1 concentrations and counted for 4 or up to 7 days. Each dot and bar is the mean±stdev respectively, of 3 independent experiments, with 2 technical replicates in each experiment. (B) Number of colonies made by MCF7, T47D, and MDA-MB-231 cells at the indicated IODVA1 concentrations. Results shown are mean±stdev of 2 independent experiments with 4 technical replicates each. (C) IODVA1 deactivates Ras at late incubation times. […] Quantification summary of 2 independent experiments is presented in the graph. n.s.—not significant, *-p<0.05, **-p<0.01, ****-p<0.0001. (D) IODVA1 inhibits proliferation of ST8814 cells. ST8814 cells were grown in the presence of the indicated IODVA1 concentrations and counted daily for 4 days. Each dot and bar is the mean and standard deviation respectively, of 3 independent experiments.
To check if IODVA1 inhibits Ras activation in cells, applicants determined the levels of active-GTP-bound-Ras in ST88-14 cells treated with IODVA1 (2 μM) or vehicle control at various time points. GST-RafRBD bound glutathione-beads were incubated with ST8814 cell lysates, thoroughly washed, and the protein complex separated on SDS-PAGE. Levels of GTP-bound pan-RAS proteins bound to RafRBD were determined by immunoblotting.
Levels of active Ras, Rac, Cdc42 and RhoA were determined using the Active Ras Pull-Down and Detection Kit, Active Rac Pull-Down and Detection Kit (Thermo Scientific) and RhoA/Rac1/Cdc4 Pull-down Activation Assay Combo Biochem Kit (Cytoskeleton). Cells were cultured and treated as indicated and lysed in buffer provided by the manufacturer. […] Proteins were resolved by SDS-PAGE, transferred to nitrocellulose and the level of active GTPase relative to input lysate were determined by immunoblotting analysis using the anti-Ras, anti-Rac, anti-Cdc42, or anti-RhoA antibody supplied by the manufacturer.

[2] = system: Vav3−/− p190-BCR-ABL1 BM leukemic cells expressing full-length Vav3; assay: Vav3 rescue, cell cycle analysis; type: cell-based, murine; conditions: 10 μM, 18 h
Excerpt: (§1) FIG. 15: Expression of transgenic Vav3 re-sensitizes Vav3-deficient cells to IODVA1. (A) Vav3 domain structure, calponin-homology (CH), acidic region (Ac), Dbl-homology (DH), pleckstrin-homology (PH), zinc finger (ZF), Src-homology 2 and 3 (SH2/SH3). (B) Representative histogram data of the cell cycle analysis of wild-type (Vav3^+/+) and Vav3-deficient (Vav3^−/−) p190-BCR-ABL1 leukemic bone marrow cells expressing empty vector, full-length Vav3 or ΔCH mutant and treated with vehicle control (black) or IODVA1 at 5 (red) or 10 μM (dark grey) for 18 h. (C) Quantification of the average number of colonies made by bone marrow wild-type and Vav3^−/− p190-BCR-ABL1 leukemic bone marrow cells expressing empty vector, full-length Vav3 or ΔCH mutant and treated with vehicle control (black) or IODVA1 at 1 (light salmon), 5 (red) and 10 μM (dark grey). *** p≤0.001.
(§2) Next, we reasoned that if IODVA1 targets Vav3, rescuing Vav3^−/− leukemic cells by expressing exogenous Vav3 should re-sensitize those cells to IODVA1. We expressed full-length Vav3 or the dominant active ΔCH-mutant (FIG. 15A) in Vav3^−/− p190-BCR-ABL1-transformed murine bone marrow leukemic cells and analyzed changes in cell cycle 18 h post-treatment with vehicle control or IODVA1 (FIG. 15B). Expressing full-length Vav3 but not the empty vector re-sensitized the Vav3^−/− BM leukemic cells to IODVA1 as shown by a 5.8-fold increase in apoptosis (p=0.0005) and a 15% decrease (p=0.08) in cells in the S-phase at 10 μM.
(§3) For Vav3 rescue experiments, low density bone marrow cells from wild-type ([…]) or Vav3^−/− mice were transduced with bicistronic retroviral vector encoding p190 BCR-ABL1-IRES-YFP (yellow fluorescent protein) and YFP^+ cells were sorted 48 h post-transduction. […] Cell cycle was analyzed at 18 h post BrdU incorporation.
(§4) Cell cycle was analyzed by using in vitro incorporation of 5-Bromo-2-deoxyuridine using Brdu Flow kit (BD Pharmingen, Cat #552598). […] DNAse treatment was done according to the instructions and stained with anti BrdU and apoptosis was analyzed by 7-AAD staining through flow cytometry analysis.

[3] = system: Vav3−/− p190-BCR-ABL1 BM leukemic cells expressing ΔCH-mutant Vav3; assay: Vav3 rescue, cell cycle analysis; type: cell-based, murine; conditions: even at the highest concentration
Excerpt: as §1, §2, §3, §4

Q: How did the “levels of active Ras versus vehicle control” value ([1]; 24 h) turn out when `OC1(c2ccccn2)N=C(Nc2nc3ccccc3[nH]2)N=C1c1ccccn1` (stereo not drawn) [IODVA1, (Z)-2-((1H-benzo[d]imidazol-2-yl)imino)-4,5-di(pyridin-2-yl)-2,5-dihydro-1H-imidazol-5-ol] was run?
A: similar

Q: What about the “levels of active Ras versus vehicle control” value ([1]; 48 h) of the same compound?
A: decrease in active Ras levels is seen

Q: What about the “decrease in active Ras levels” value ([1]; 72 h) of the same compound?
A: very noticeable

Q: And the increase in apoptosis ([2]; p=0.0005)?
A: 5.8 fold

Q: What about the “decrease in cells in the S-phase” value ([2]; p=0.08) of the same compound?
A: 15%

Q: And the “re-sensitization to IODVA1” value [3]?
A: did not re-sensitize
